According to patent US9062037B2, “Tazarotene derivatives” (Stiefel Laboratories, Inc., priority 2009, dated 2015):
Where two headings read alike, the source gives them in different places.

Tests used:
[1] = for k constant: HLM
Method: (§2) Hepatic microsomal reactions were carried out in microcentrifuge tubes in the following manner. Human liver microsomes (0.5 or 1.0 mg/ml protein), Test Article (1 or 10 μM), paraoxon (0, 10 or 100 μM), NADPH regenerating system (10 mM glucose-6-phosphate, 1 unit/ml glucose-6-phosphate dehydrogenase, 1 mM NADP^+), magnesium chloride (5 mM) in 0.1 M potassium phosphate buffer, pH 7.4 were incubated at 37° C. in a shaking water bath. Reactions were initiated with the addition of substrate with the exception of the zero-time incubations. The total reaction volume was 0.2 ml. The reactions were incubated for 15, 30, 45 or 60 minutes, terminated with 0.2 ml ice-cold acetonitrile and then placed on ice. For zero-time incubations, ice cold acetonitrile was added to the mixture containing microsomes, along with NADPH regenerating system, magnesium chloride in phosphate buffer and the Test Article. Each time point was carried out in triplicate.
(§3) Disappearance of Test Article and formation of metabolites following in vitro metabolism were determined by LC-MS/MS using multiple reaction monitoring. LightSight® software (Applied Biosystems, Foster City, Calif.) was used to generate the mass spectrometry methods and carry out the data mining.
(§4) Control incubations were carried out with the identical incubation procedures as described above with the following exceptions. In negative control reactions, microsomes were not included. […] Duplicate reactions with an initial concentration of 10 μM were incubated for 0 or 30 minutes. Microsomal metabolic stability of 7-ethoxycoumarin was determined by LC-MS/MS.

[2] = HPLC analysis of mixtures of DUAC gel and TAZORAC cream (degradation of tazarotene in the presence of benzoyl peroxide); format: physicochemical; conditions: fresh samples; 35° C.; 4 hours
Method: DUAC® gel (1% clindamycin and 5% benzoyl peroxide marketed by Stiefel Laboratories, Inc.) and TAZORAC® cream (0.1% tazarotene marketed by Allergan, Inc.) have been successfully used to treat facial acne. However, these topical treatments are not approved for concomitant use. To study whether tazarotene is susceptible to oxidative decomposition by benzoyl peroxide, an in vitro laboratory study was conducted wherein a mixture of DUAC gel and TAZORAC cream was prepared.
Samples were prepared by taking equal portions of DUAC gel and TAZORAC cream and mixing them thoroughly at room temperature with a spatula in a suitable container to form a uniform mixture. The initial samples were analyzed immediately by HPLC. The other samples were placed into an oven at 35° C. and removed for analysis after one, two, four, six and eight hours. An allowance was made for product evaporation over the course of the study.

[3] = Stability in human plasma at room temperature; format: in vitro ADME
Method: (§1) Tazarotene, tazarotene sulfoxide and tazarotene benzoate were incubated at room temperature with human and rat plasma. The incubation was carried out in duplicate and samples were taken at specific time points for stability analyses (i) rat samples (0 hour, 2 hours and 4 hours) and (ii) human samples (0 hour, 2 hours, 4 hours and 8 hours). Samples were analyzed by LC-MS/MS.

in vitro = conditions: human, liver microsomes, pH 7.4, Half-life, HLM
Method: as §2, §3, §4

[4] = In vitro application of DUAC gel/TAZORAC cream mixture to split-thickness human skin; tazarotene and degradants quantified by LC/MS/MS; format: in vitro ADME
Method: An in vitro study was conducted to assess the formation of tazarotene degradants following the application of a mixture of DUAC gel and TAZORAC cream to human skin.
Equal portions of DUAC gel and TAZORAC cream were dispensed into a glass vial and mixed for approximately three minutes with a metal spatula to ensure a homogenous mixture. Samples of European DUAC gel and US DUAC gel were used in separate experiments. […] The test mixtures were then applied to the surface of split-thickness skin (˜0.25 mm) at a dose of 15.6 mg/cm^2 and spread evenly using a positive displacement pipette.
After 2 and 6 hours, the skin samples were washed, tape stripped twice, and then the epidermis was peeled from the dermis using a heat block. The skin samples were then extracted with acetonitrile overnight at 4° C. The distribution of tazarotene and its degradants within the epidermis, dermis and surface wash were quantified by LC/MS/MS with a 50 pg/mL LOQ. The experiments were performed under yellow light conditions. For the purposes of comparison, mixtures of DUAC gel and TAZORAC cream were also prepared and retained for stability testing at 0, 2 and 6 hour time points.

[5] = Stability in rat plasma at room temperature; format: in vitro ADME
Method: as §1

[6] = Reaction with benzoyl peroxide (BPO) in solution; format: physicochemical; conditions: at all three temperatures (35° C., room temperature, 5° C.); BPO 50-fold excess by weight
Method: The reaction of (i) tazarotene, tazarotene benzoate, hydroxy tazarotenic acid and tazarotene nicotinate with (ii) benzoyl peroxide (BPO) in 30% aqueous solutions was monitored at 35° C., room temperature and 5° C.
Individual solutions of each compound were prepared at approximately 0.25 mg/mL in acetonitrile:water (6:4 by volume). Reactions were initiated by mixing equal volumes of the test solution with an approximately 12 mg/mL solution of benzoyl peroxide (BPO) in acetonitrile:water (4:1 by volume). Therefore, the reaction solution contained approximately 0.125 mg/mL of the test compound and the BPO was at a 50-fold excess by weight (i.e. at the same ratio as a product containing 0.1% tazarotene and 5% BPO). Aliquots of the reaction solutions were stored at various temperatures protected from light.
Reactions were quenched by diluting 30 μL of the reaction solution to 50 mL with a diluent (acetonitrile:water in a ratio of 1:1 by volume) and storing the sample at 10° C. in the LC/MS sample tray or at 5° C. for storage. Duplicate samples were prepared at each time point (three at the start of the reaction) and the results were averaged together to generate a single value.
Samples were analyzed on a Waters Acquity UPLC with a Waters Xevo TQMS using an ESI source in the positive mode controlled by MassLynx V4.1 software. […]

[7] = test system: Reconstructed human epidermis (RHE) tissues; test: RT-qPCR gene expression of K10, K19, filaggrin, K4 and K13 in reconstructed human epidermis (RHE) cultures; format: cell-based; conditions: 72 h, 2.83 mM in OD/10% DMSO, 6 μl
Method: Reconstructed human epidermis (RHE) tissues were cultured in-house as previously described by Poumay et al. Briefly, polycarbonate culture inserts (12 mm diameter and 0.4 μm pore size, Millipore) were filled with 150 μL of a suspension containing approximately 5×10^5 primary adult human keratinocytes. The inserts received another 500 μL of keratinocyte culture media and were placed in a 6-well plate (1 insert/well) containing 2.5 mL of RHE Growth Media (Epilife media +1.5 mM CaCl2). RHE cultures were incubated at 37° C. in a humidified atmosphere containing 5% CO2, for 24 hours. Subsequently (on Day 0), RHE cultures were exposed to the air-liquid interface by removing the RHE Growth Media from the top of the cultures, and replacing with 1.5 mL/well of RHE Growth Media containing 50 μg/mL vitamin C. Media was changed every other day until the cultures were dosed with Test Articles. A stock solution of 0.1% tazarotene (2.83 mM at 99.5% purity) in OD/10% DMSO was prepared. For tazarotene benzoate, hydroxytazarotenic acid, keto tazarotenic acid, keto tazarotene, and tazarotene nicotinate, a 10 mg/mL stock solution (in DMSO) was already prepared. From this stock solution, a 2.83 mM working solution (in octyldodecanol) was prepared. All other tested compounds were resuspended in DMSO and OD to obtain a final concentration of 2.83 mM in OD/10% DMSO. On Day 12, the cultures were placed in 60 mm petri dishes containing 3 mL of RHE Growth Media (+VitC). Test articles (6 μl) were applied to triplicate cultures and cultures were incubated at 37° C. for 72 hours. Untreated and OD alone served as negative controls. At the end of the incubation period, the growth media was collected and stored at −20° C. The tissues were cut in half: one half was placed in 10% NBF for histology, and the other half was placed in RNAlater™ solution for RT-qPCR. RNA was isolated and concentrations were determined using a NanoDrop spectrophotometer. In addition to using the same amount of RNA for each sample, data was normalized to internal GAPDH mRNA levels and is expressed as relative quantification (RQ) to untreated controls. RNA extracts from each replicate were amplified using RT-qPCR. The relative gene expression of five biomarkers was determined: Keratin 10, Keratin 19, Filaggrin, Keratin 4, and Keratin 13.

[8] = 1 μM initial concentration, Complete (with NADPH), 0 min
[9] = 1 μM initial concentration, Complete (with NADPH), 15 min
[10] = 1 μM initial concentration, Complete (with NADPH), 30 min
[11] = 1 μM initial concentration, Complete (with NADPH), 45 min
[12] = 1 μM initial concentration, Complete (with NADPH), 60 min
[13] = 1 μM initial concentration, Without NADPH, 0 min
[14] = 1 μM initial concentration, Without NADPH, 15 min
[15] = 1 μM initial concentration, Without NADPH, 30 min
[16] = 1 μM initial concentration, Without NADPH, 45 min
[17] = 1 μM initial concentration, Without NADPH, 60 min
[18] = 10 μM initial concentration, Complete (with NADPH), 0 min
[19] = 10 μM initial concentration, Complete (with NADPH), 15 min
[20] = 10 μM initial concentration, Complete (with NADPH), 30 min
[21] = 10 μM initial concentration, Complete (with NADPH), 45 min
[22] = 10 μM initial concentration, Complete (with NADPH), 60 min
[23] = 10 μM initial concentration, Without NADPH, 0 min
[24] = 10 μM initial concentration, Without NADPH, 15 min
[25] = 10 μM initial concentration, Without NADPH, 30 min
[26] = 10 μM initial concentration, Without NADPH, 45 min
[27] = 10 μM initial concentration, Without NADPH, 60 min

SMILES | Test Article remaining, percent of initial concentration [1, 8] | Test Article remaining, percent of initial concentration [1, 9] | Test Article remaining, percent of initial concentration [1, 10] | Test Article remaining, percent of initial concentration [1, 11] | Test Article remaining, percent of initial concentration [1, 12] | Test Article remaining, percent of initial concentration [1, 13] | Test Article remaining, percent of initial concentration [1, 14] | Test Article remaining, percent of initial concentration [1, 15] | Test Article remaining, percent of initial concentration [1, 16] | Test Article remaining, percent of initial concentration [1, 17] | Test Article remaining, percent of initial concentration [1, 18] | Test Article remaining, percent of initial concentration [1, 19] | Test Article remaining, percent of initial concentration [1, 20] | Test Article remaining, percent of initial concentration [1, 21] | Test Article remaining, percent of initial concentration [1, 22] | Test Article remaining, percent of initial concentration [1, 23] | Test Article remaining, percent of initial concentration [1, 24] | Test Article remaining, percent of initial concentration [1, 25] | Test Article remaining, percent of initial concentration [1, 26] | Test Article remaining, percent of initial concentration [1, 27] | further results
CCOC(=O)c1ccc(C#Cc2ccc3c(c2)C(C)(C)CC[S+]3[O-])nc1 (centres unmarked) [Tazarotene sulfoxide, 6-(4,4-Dimethyl-1-oxo-1λ^4-thiochroman-6-ylethynyl)nicotinic acid ethyl ester] | 100% | 25.6% | 8.86% | 4.24% | 2.17% | 100% | 27.9% | 8.40% | 2.72% | 1.11% | 100% | 30.9% | 11.4% | 4.80% | 2.70% | 100% | 30.4% | 8.96% | 2.98% | 1.18% | k constant ([1]; 1 μM, Complete): −0.0689; k constant ([1]; 1 μM, Without NADPH): −0.0779; k constant ([1]; 10 μM, Complete): −0.0647; k constant ([1]; 10 μM, Without NADPH): −0.0763; % Label Tazarotene Sulfoxide [2]: ~16 % Label; concentration in human plasma ([3]; 0 hour): 36.2 ng/mL; concentration in human plasma ([3]; 2 hours): 34.0 ng/mL; concentration in human plasma ([3]; 4 hours): 32.2 ng/mL; concentration in human plasma ([3]; 8 hours): 31.9 ng/mL; half-life at 1 µM (in vitro; Complete): 10.1 min; half-life at 1 µM (in vitro; Without NADPH): 8.9 min; half-life at 10 µM (in vitro; Complete): 10.7 min; half-life at 10 µM (in vitro; Without NADPH): 9.08 min; identified in the epidermis and dermis ([4]; after 2 hours of application of the DUAC/TAZORAC mixture to the skin): identified in the epidermis and dermis; quantity in stability samples at the 6 hour time point relative to the 2 hour time point ([4]; mixture of DUAC gel and TAZORAC cream retained for stability testing): doubled; concentration in rat plasma ([5]; 0 hour): 34.1 ng/mL; concentration in rat plasma ([5]; 2 hours): <LOD; concentration in rat plasma ([5]; 4 hours): <LOD
CC1(C)CCSc2ccc(C#Cc3ccc(C(=O)O)cn3)cc21 [Tazarotenic acid] | 100% | 89.9% | 82.0% | 75.8% | 68.0% | 100% | 100% | 101% | 102% | 101% | 100% | 93.1% | 88.6% | 77.8% | 77.4% | 100% | 102% | 99.0% | 106% | 102% | k constant ([1]; 1 μM, Complete): −0.0064; k constant ([1]; 1 μM, Without NADPH): 0.0003; k constant ([1]; 10 μM, Complete): −0.0047; k constant ([1]; 10 μM, Without NADPH): 0.0006; metabolized by human liver microsomes ([1]; in the absence of NADPH): not metabolized; metabolized by human liver microsomes to tazarotenic acid sulfoxide ([1]; in the presence of NADPH): slowly metabolized; half-life at 1 µM (in vitro; Complete): 108 min; half-life at 10 µM (in vitro; Complete): 147 min; detection of tazarotenic acid ([4]; under these experimental conditions): not detected
CCOC(=O)c1ccc(C#Cc2ccc3c(c2)C(C)(C)CC(OC(=O)c2cccnc2)S3)nc1 (centres unmarked) [Compound 7, 6-[4,4-Dimethyl-2-(pyridine-3-carbonyloxy)thiochroman-6-ylethynyl]nicotinic acid ethyl ester] | – | – | – | – | – | – | – | – | – | – | – | – | – | – | – | – | – | – | – | – | less reactive with BPO than tazarotene and hydroxy tazarotenic acid [6]: ~25 times; fold induction at 2830 µM ([7]; read-out: K4 Fold Change vs Untreated/OD controls (upregulation)): 23; fold induction at 2830 µM ([7]; read-out: K13 Fold Change vs Untreated/OD controls (upregulation)): 8; fold induction at 2830 µM ([7]; read-out: K19 Fold Change vs Untreated/OD controls (upregulation)): 17
